Reference: patent publication US12428394B2, “2,4-disubstituted pyrimidine derivative, preparation method therefor and use thereof” (CHENGDU ZENITAR BIOMEDICAL TECHNOLOGY CO., LTD., priority 2019, dated 2025)

Experiments:
JAK2 = biological target: T1, JAK2 (Homo sapiens, UniProt O60674); test: In vitro kinase activity experiment, JAK2; assay type: biochemical; details: inhibition rate of enzyme at 500 nM; measured by Eurofins
T1 construct: purchased Eurofins
Method: (§1) Buffer solution ([…], pH 7.0, 0.2 mm EDTA, 10 mM mncl2), kinase to be tested, substrate of kinase to be tested, 10 mM magnesium acetate and γ33P-ATP solution, and compounds with different concentrations were added to a reaction tube in turn, then MgATP was added to initiate the enzyme reaction process, and incubated at room temperature for 40 min. Then, the reaction was terminated with 5 μl of […], and 10 μl of the reaction solution was titrated onto the Filtermat A membrane, washed with 75 mM phosphate solution for three times, each time for 5 min., and then washed with methanol once. Finally, the Filtermat A membrane was dried and the scintillation count was carried out.

SET-2 cells (JAK2 V617F) = test: Inhibition of cell proliferation by MTT experiment, SET-2; assay type: cell-based; details: Homo sapiens, SET-2; MTT, 72 h; read-out: IC50 value on cell proliferation inhibition, SET-2 (V617F)
Text: (§2) MV4-11, MOLM-13 and SET-2 were used to determine the influence of the test compound of the present invention on the activity of cancer cells. MV4-11 and MOLM-13 were human leukemia cell lines from American Type Culture Collection (ATCC), expressing FLT3 receptor and containing FLT3-ITD mutation; and SET-2 was a primary thrombocythemia cell purchased from Chengdu Bowerston Biotechnology Co., Ltd., China, continuously expressing JAK2 receptor and containing the mutation of V617F.
(§3) MV4-11, MOLM-13 and SET-2 cells were filled in a 96-well petri dish with 100 μL IMDM as the medium, containing 10% fetal bovine serum (100 mL/bottle, purchased from Grassland Lvye Bio-Engineering Materials Co., Ltd. and cryopreserved at −20° C.), and with 10,000-15,000 cells in each well. […] In each group, 3-5 replicate wells were set and incubated in 5% CO2 at 37° C. for 72 h. At the endpoint, 20 μL MTT (5 mg/mL) was added to each well, and the cells were incubated for another 1-3 h.
(§4) After the inhibition rate of each concentration of compound on cell proliferation activity was calculated, the dose-response curve and IC50 value were fitted by Graphpad prism software according to the compound treatment concentrations and corresponding inhibition rates.

[1] = test system: MV4-11 cells (FLT3-ITD+/+); test: Inhibition of cell proliferation by MTT experiment, MV4-11; assay type: cell-based, human; details: Homo sapiens, MV4-11; MTT, 72 h; read-out: IC50 value on cell proliferation inhibition, MV4-11 FLT3-ITD+/+
Text: as §2, §3, §4

[2] = test system: MOLM-13 cells (FLT3-ITD-/+); test: Inhibition of cell proliferation by MTT experiment, MOLM-13; assay type: cell-based, human; details: Homo sapiens, MOLM-13; MTT, 72 h; read-out: IC50 value on cell proliferation inhibition, MOLM-13 FLT3-ITD-/+
Text: as §2, §3, §4

FLT3 = biological target: T2, FLT3 (Homo sapiens, UniProt P36888); test: In vitro kinase activity experiment, FLT3; assay type: biochemical; details: 40 min; inhibition rate of enzyme at 500 nM; measured by Eurofins; read-out: Kinase activity @ 500 nM (%) FLT3
T2 construct: purchased Eurofins
T2 sequence (P36888 27-993): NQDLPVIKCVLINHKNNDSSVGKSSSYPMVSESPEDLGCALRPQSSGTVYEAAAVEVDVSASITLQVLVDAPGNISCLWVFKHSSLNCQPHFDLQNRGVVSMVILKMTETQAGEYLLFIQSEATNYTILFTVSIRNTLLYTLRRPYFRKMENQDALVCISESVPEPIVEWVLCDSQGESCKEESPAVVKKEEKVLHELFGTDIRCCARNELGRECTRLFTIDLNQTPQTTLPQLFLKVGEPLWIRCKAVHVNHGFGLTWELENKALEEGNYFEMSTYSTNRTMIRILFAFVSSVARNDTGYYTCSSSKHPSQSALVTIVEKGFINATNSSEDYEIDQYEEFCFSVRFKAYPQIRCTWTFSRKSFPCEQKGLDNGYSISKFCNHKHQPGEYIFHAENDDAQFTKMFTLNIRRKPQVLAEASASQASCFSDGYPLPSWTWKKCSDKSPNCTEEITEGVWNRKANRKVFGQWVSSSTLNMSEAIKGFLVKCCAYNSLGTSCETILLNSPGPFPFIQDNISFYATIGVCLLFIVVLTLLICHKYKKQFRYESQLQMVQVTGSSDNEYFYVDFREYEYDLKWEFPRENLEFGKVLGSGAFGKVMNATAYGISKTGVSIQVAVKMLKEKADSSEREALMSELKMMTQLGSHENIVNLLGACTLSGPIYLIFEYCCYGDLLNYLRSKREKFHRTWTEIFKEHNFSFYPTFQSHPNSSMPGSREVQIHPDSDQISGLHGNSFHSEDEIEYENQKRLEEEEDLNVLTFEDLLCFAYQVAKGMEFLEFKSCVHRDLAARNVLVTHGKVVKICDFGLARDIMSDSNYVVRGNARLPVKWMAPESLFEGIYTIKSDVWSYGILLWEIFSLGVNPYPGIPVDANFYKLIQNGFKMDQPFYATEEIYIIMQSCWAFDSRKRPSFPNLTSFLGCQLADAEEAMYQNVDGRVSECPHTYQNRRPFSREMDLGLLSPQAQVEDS
Method: as §1

T1 sequence (O60674 whole entry): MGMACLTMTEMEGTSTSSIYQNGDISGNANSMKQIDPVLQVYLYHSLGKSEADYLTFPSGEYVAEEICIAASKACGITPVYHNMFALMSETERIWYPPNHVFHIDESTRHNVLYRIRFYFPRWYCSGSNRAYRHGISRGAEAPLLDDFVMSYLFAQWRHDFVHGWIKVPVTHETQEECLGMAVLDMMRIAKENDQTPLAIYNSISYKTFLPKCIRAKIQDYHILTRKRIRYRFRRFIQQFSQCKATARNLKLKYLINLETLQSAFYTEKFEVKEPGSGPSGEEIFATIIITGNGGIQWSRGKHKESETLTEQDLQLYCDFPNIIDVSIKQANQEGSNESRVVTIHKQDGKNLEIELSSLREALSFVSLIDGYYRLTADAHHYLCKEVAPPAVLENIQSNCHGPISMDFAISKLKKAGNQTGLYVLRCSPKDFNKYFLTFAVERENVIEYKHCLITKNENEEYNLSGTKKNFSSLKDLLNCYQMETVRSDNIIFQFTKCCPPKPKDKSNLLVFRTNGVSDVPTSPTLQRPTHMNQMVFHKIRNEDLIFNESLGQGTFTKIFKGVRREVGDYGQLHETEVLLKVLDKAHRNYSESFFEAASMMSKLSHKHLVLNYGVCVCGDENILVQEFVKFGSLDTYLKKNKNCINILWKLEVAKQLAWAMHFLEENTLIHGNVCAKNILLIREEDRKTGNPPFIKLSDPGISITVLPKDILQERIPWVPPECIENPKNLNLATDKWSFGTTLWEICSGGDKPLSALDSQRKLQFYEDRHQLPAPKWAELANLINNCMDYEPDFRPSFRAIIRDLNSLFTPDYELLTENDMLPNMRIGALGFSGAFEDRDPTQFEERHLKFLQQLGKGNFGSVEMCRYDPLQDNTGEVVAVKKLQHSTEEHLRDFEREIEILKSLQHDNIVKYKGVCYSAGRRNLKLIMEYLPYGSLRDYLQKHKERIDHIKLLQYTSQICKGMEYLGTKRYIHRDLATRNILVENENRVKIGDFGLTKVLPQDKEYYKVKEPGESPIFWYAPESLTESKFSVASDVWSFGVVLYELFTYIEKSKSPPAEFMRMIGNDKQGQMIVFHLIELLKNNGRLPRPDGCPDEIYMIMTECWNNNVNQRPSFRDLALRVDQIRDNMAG

Row | SMILES | Kinase activity @ 500 nM (%) JAK2 (JAK2) [%] | IC50 [1] [nM] | IC50 [2] [nM] | inhibition at 0.5 µM (FLT3) [%] | IC50 (SET-2 cells (JAK2 V617F)) [nM]
1 | CCCCN1CCN(c2ccc(Nc3ncc(F)c(-c4cnn(C(C)C)c4)n3)nc2)CC1 [CLJ-20, 5-fluoro-N-(5-(4-butylpiperazine-1-yl)pyridine-2-yl)-4-(1-isopropyl-1H-pyrazole-4-yl) pyrimidine-2-amine] | 97 | 100 to 1000 | 100 to 1000 | 95 | 100 to 1000
2 | CCN1CCN(Cc2ccc(Nc3ncc(F)c(-c4cnn(C(C)C)c4)n3)nc2)CC1 [CLJ-21, 5-fluoro-N-(5-((4-ethylpiperazine-1-yl)methyl)pyridine-2-yl)-4-(1-isopropyl-1H-pyrazole-4-yl) pyrimidine-2-amine] | 89 | 100 to 1000 | 100 to 1000 | 75 | 100 to 1000
3 | CC(C)n1cc(-c2nc(Nc3ccc(N4CCN(C)CC4)cc3)ncc2F)cn1 [CLJ-22, 5-fluoro-N-(4-(4-methylpiperazine-1-yl)phenyl)-4-(1-isopropyl-1H-pyrazol-4-yl) pyrimidine-2-amine] | 79 | 100 to 1000 | 100 to 1000 | 80 | 100 to 1000
4 | CC(C)n1cc(-c2nc(Nc3ccc(N4CCN(C5CCN(C)CC5)CC4)cc3)ncc2F)cn1 [CLJ-31, 5-fluoro-N-(4-(4-(1-methylpiperidine-4-yl)piperazine-1-yl)phenyl)-4-(1-isopropyl-1H-pyrazole-4-yl) pyrimidine-2-amine] | 25 | > 1000 | > 1000 | 18 | > 1000
5 | CC(C)n1cc(-c2nc(Nc3ccc(N4CCC(N5CCCCC5)CC4)c(F)c3)ncc2F)cn1 [CLJ-33] | 34 | > 1000 | > 1000 | 23 | > 1000
6 | CC(C)n1cc(-c2nc(Nc3ccc(N4CCC(N(C)C)CC4)c(F)c3)ncc2F)cn1 [CLJ-36, 5-fluoro-N-(3-fluoro-4-(4-dimethylaminopiperidine-1-yl)phenyl)-4-(1-isopropyl-1H-pyrazole-4-yl) pyrimidine-2-amine] | 97 | 10 to 100 | 10 to 100 | 99 | 100 to 1000
7 | COc1cc(Nc2ncc(F)c(-c3cnn(C(C)C)c3)n2)ccc1N1CCC(N(C)C)CC1 [CLJ-37, 5-fluoro-N-(3-methoxy-4-(4-dimethylaminopiperidine-1-yl)phenyl)-4-(1-isopropyl-1H-pyrazole-4-yl) pyrimidine-2-amine] | 98 | 10 to 100 | 100 to 1000 | 97 | 100 to 1000
8 | COc1cc(Nc2ncc(C)c(-c3cnn(C(C)C)c3)n2)ccc1N1CCC(N(C)C)CC1 [CLJ-39, 5-methyl-N-(3-methoxy-4-(4-dimethylaminopiperidine-1-yl)phenyl)-4-(1-isopropyl-1H-pyrazole-4-yl) pyrimidine-2-amine] | 94 | 10 to 100 | 100 to 1000 | 90 | 100 to 1000

Further lines, with some results ahead:

Row | Kinase activity @ 500 nM (%) JAK2 (JAK2) [%] | IC50 [1] [nM] | IC50 [2] [nM] | inhibition at 0.5 µM (FLT3) [%] | SMILES | IC50 (SET-2 cells (JAK2 V617F)) [nM]
9 | 92 | 10 to 100 | 100 to 1000 | 95 | CC(C)n1cc(-c2nc(Nc3cccc(N4CCN(C)CC4)c3)ncc2F)cn1 [CLJ-19, 5-fluoro-N-(3-(4-methylpiperazine-1-yl)phenyl)-4-(1-isopropyl-1H-pyrazol-4-yl) pyrimidine-2-amine] | 100 to 1000
10 | 49 | 100 to 1000 | > 1000 | 40 | CC(C)n1cc(-c2nc(Nc3ccc(N4CCN(C)CC4)cc3F)ncc2F)cn1 [CLJ-23, 5-fluoro-N-(2-fluoro-4-(4-methylpiperazine-1-yl)phenyl)-4-(1-isopropyl-1H-pyrazol-4-yl) pyrimidine-2-amine] | 100 to 1000
11 | 28 | 100 to 1000 | > 1000 | 32 | CC(C)n1cc(-c2nc(Nc3ccc(N4CCN(C)CC4)c(F)c3)ncc2F)cn1 [CLJ-24, 5-fluoro-N-(3-fluoro-4-(4-methylpiperazine-1-yl)phenyl)-4-(1-isopropyl-1H-pyrazol-4-yl) pyrimidine-2-amine] | > 1000
12 | 19 | > 1000 | > 1000 | 30 | CCN1CCN(c2ccc(Nc3ncc(F)c(-c4cnn(C(C)C)c4)n3)cc2F)CC1 [CLJ-26, 5-fluoro-N-(3-fluoro-4-(4-ethylpiperazine-1-yl)phenyl)-4-(1-isopropyl-1H-pyrazole-4-yl) pyrimidine-2-amine] | > 1000
13 | 34 | 100 to 1000 | > 1000 | 24 | CC(C)n1cc(-c2nc(Nc3ccc(N4CCCC4)c(F)c3)ncc2F)cn1 [CLJ-27, 5-fluoro-N-(3-fluoro-4-(pyrrolidine-1-yl)phenyl)-4-(1-isopropylpyrazol-4-yl) pyrimidine-2-amine] | > 1000
14 | 25 | > 1000 | > 1000 | 21 | COc1cc(Nc2ncc(F)c(-c3cnn(C(C)C)c3)n2)ccc1N1CCN(C)CC1 [CLJ-28, 5-fluoro-N-(3-methoxy-4-(4-methylpiperazine-1-yl)phenyl)-4-(1-isopropyl-1H-pyrazol-4-yl) pyrimidine-2-amine] | > 1000
15 | 89 | 10 to 100 | 100 to 1000 | 96 | CCN1CCN(c2ccc(Nc3ncc(C)c(-c4cnn(C(C)C)c4)n3)cc2F)CC1 [CLJ-30] | 100 to 1000
16 | 90 | 10 to 100 | 100 to 1000 | 95 | CC(C)n1cc(-c2nc(Nc3ccc(N4CCN(C5CCN(C)CC5)CC4)c(F)c3)ncc2F)cn1 [CLJ-32, 5-fluoro-N-(3-fluoro-4-(4-(1-methylpiperidine-4-yl)piperazine-1-yl)phenyl)-4-(1-isopropyl-1H-pyrazole-4-yl) pyrimidine-2-amine] | 100 to 1000
17 | 93 | 10 to 100 | 100 to 1000 | 95 | Cc1nn(C(C)C)cc1-c1nc(Nc2ccc(N3CCN(C)CC3)c(F)c2)ncc1F [CLJ-34] | 100 to 1000
18 | 92 | 10 to 100 | 100 to 1000 | 91 | Cc1c(-c2nc(Nc3ccc(N4CCN(C)CC4)c(F)c3)ncc2F)cnn1C(C)C [CLJ-35] | 100 to 1000
